Experimental data from patent US20250314644A1, “METHODS COMPRISING DETECTION OF ADP-HEPTOSE” (CHILDREN'S HOSPITAL MEDICAL CENTER, priority 2023, published 2025).

Key:
Type in all cases: cell-based, mouse
Dnmt3a^KO cells = test: RNA-sequencing of HSPCs treated in vitro with ADP-heptose or H2O for 90 minutes
[1] = test system: Dnmt3a^−/−; Alpk1^−/− HSPCs; test: NF-κB activation in vitro (immunoblot)
[2] = test system: MAPK signaling in Dnmt3a^−/− HSPCs; test: Immunoblot of MAPK signaling
Protocol: (A) ALPK1 and TIFA mRNA expression in Dnmt3a^WT and Dnmt3a^KO HSC from the publicly available dataset GSE98191. (B) Immunoblot analysis of HSPCs from WT, Alpk1^KO, Dnmt3a^KO, and Dnmt3a^KO; Alpk1^KO mice stimulated with indicated concentrations of ADP-heptose for 30 minutes to examine MAPK signaling.
Protein concentration was evaluated by bicinchoninic acid (BCA) assay (Pierce, Cat #23225). SDS sample buffer was added to the lysates and the proteins were separated by SDS-polyacrylamide gel electrophoresis, transferred to PVDF or nitrocellulose membranes (BIO-RAD, Cat #1620112), and analyzed by immunoblotting. […] Membranes were visualized using ECL Western Blotting Substrate (Pierce, #32106) or SuperSignal West Femto Substrate (Thermo Scientific, #34096), imaged on a BIO-RAD ChemiDoc Touch Imaging system and analyzed with Image lab software 6.0.1 (Biorad) or Image J (22930834).

Nc1ncnc2c1ncn2[C@@H]1O[C@H](COP(=O)(O)OP(=O)(O)O[C@@H]2O[C@H]([C@H](O)CO)[C@@H](O)[C@H](O)[C@@H]2O)[C@@H](O)[C@H]1O [ADP-heptose, ADP-D-glycero-β-D-manno-heptose]
gene expression changes (global transcriptomic analysis) (Dnmt3a^KO cells; Dnmt3a^−/− compared to WT LSKs): significant gene expression changes | logFC (Dnmt3a^KO cells; gene 2610037D02Rik, Dnmt3a^KO cells): −0.596 | logFC (Dnmt3a^KO cells; gene 5031425F14Rik, Dnmt3a^KO cells): 0.6597 | logFC (Dnmt3a^KO cells; gene 6330549D23Rik, Dnmt3a^KO cells): 0.6997 | logFC (Dnmt3a^KO cells; gene A130077B15Rik, Dnmt3a^KO cells): −0.592 | logFC (Dnmt3a^KO cells; gene AF251705, Dnmt3a^KO cells): 0.6212 | logFC (Dnmt3a^KO cells; gene Adm, Dnmt3a^KO cells): 1.598 | logFC (Dnmt3a^KO cells; gene Afp, Dnmt3a^KO cells): 0.7049 | logFC (Dnmt3a^KO cells; gene Ahrr, Dnmt3a^KO cells): 1.585 | logFC (Dnmt3a^KO cells; gene Angptl2, Dnmt3a^KO cells): 0.6418 | logFC (Dnmt3a^KO cells; gene Avil, Dnmt3a^KO cells): 1.557 | logFC (Dnmt3a^KO cells; gene Baiap2, Dnmt3a^KO cells): 0.7135 | logFC (Dnmt3a^KO cells; gene Baiap2l1, Dnmt3a^KO cells): 0.6616 | logFC (Dnmt3a^KO cells; gene C1qb, Dnmt3a^KO cells): 0.6904 | logFC (Dnmt3a^KO cells; gene C1qc, Dnmt3a^KO cells): 0.6327 | logFC (Dnmt3a^KO cells; gene Carns1, Dnmt3a^KO cells): 0.6216 | logFC (Dnmt3a^KO cells; gene Ccl2, Dnmt3a^KO cells): 0.6432 | logFC (Dnmt3a^KO cells; gene Ccl24, Dnmt3a^KO cells): 1.576 | logFC (Dnmt3a^KO cells; gene Cd28, Dnmt3a^KO cells): 0.6845 | logFC (Dnmt3a^KO cells; gene Cd40, Dnmt3a^KO cells): 0.6974 | logFC (Dnmt3a^KO cells; gene Cd74, Dnmt3a^KO cells): 0.6203 | logFC (Dnmt3a^KO cells; gene Ces1d, Dnmt3a^KO cells): 0.5862 | logFC (Dnmt3a^KO cells; gene Chst10, Dnmt3a^KO cells): 0.609 | logFC (Dnmt3a^KO cells; gene Ciita, Dnmt3a^KO cells): 0.6462 | logFC (Dnmt3a^KO cells; gene Clec10a, Dnmt3a^KO cells): 0.615 | logFC (Dnmt3a^KO cells; gene Col1a1, Dnmt3a^KO cells): 0.5944 | logFC (Dnmt3a^KO cells; gene Col15a1, Dnmt3a^KO cells): 0.6093 | logFC (Dnmt3a^KO cells; gene Cxcl3, Dnmt3a^KO cells): 0.6695 | logFC (Dnmt3a^KO cells; gene Cxcr2, Dnmt3a^KO cells): −0.587 | logFC (Dnmt3a^KO cells; gene Dcstamp, Dnmt3a^KO cells): 0.7137 | logFC (Dnmt3a^KO cells; gene Dnah6, Dnmt3a^KO cells): 0.6061 | logFC (Dnmt3a^KO cells; gene Dqx1, Dnmt3a^KO cells): 0.6377 | logFC (Dnmt3a^KO cells; gene Emp1, Dnmt3a^KO cells): 0.6342 | logFC (Dnmt3a^KO cells; gene Etohi1, Dnmt3a^KO cells): −0.586 | logFC (Dnmt3a^KO cells; gene Fam167a, Dnmt3a^KO cells): 0.6175 | logFC (Dnmt3a^KO cells; gene Fblim1, Dnmt3a^KO cells): 0.5971 | logFC (Dnmt3a^KO cells; gene Flrt2, Dnmt3a^KO cells): 0.7192 | logFC (Dnmt3a^KO cells; gene Gm8369, Dnmt3a^KO cells): −0.599 | logFC (Dnmt3a^KO cells; gene Gm17455, Dnmt3a^KO cells): 0.7125 | logFC (Dnmt3a^KO cells; gene Grap, Dnmt3a^KO cells): 0.6793 | logFC (Dnmt3a^KO cells; gene Grm1, Dnmt3a^KO cells): 1.762 | logFC (Dnmt3a^KO cells; gene Gzmb, Dnmt3a^KO cells): 0.674 | logFC (Dnmt3a^KO cells; gene Gzmc, Dnmt3a^KO cells): 1.782 | logFC (Dnmt3a^KO cells; gene H2-DMb2, Dnmt3a^KO cells): 0.6529 | logFC (Dnmt3a^KO cells; gene H2-Eb1, Dnmt3a^KO cells): 0.5954 | logFC (Dnmt3a^KO cells; gene H2-Eb2, Dnmt3a^KO cells): 0.6221 | logFC (Dnmt3a^KO cells; gene H2-K2, Dnmt3a^KO cells): 0.6688 | logFC (Dnmt3a^KO cells; gene Hic1, Dnmt3a^KO cells): 1.783 | logFC (Dnmt3a^KO cells; gene Hist1h2ag, Dnmt3a^KO cells): 0.6273 | logFC (Dnmt3a^KO cells; gene Hist1h2bc, Dnmt3a^KO cells): 0.6716 | logFC (Dnmt3a^KO cells; gene Hist1h2be, Dnmt3a^KO cells): 0.6244 | logFC (Dnmt3a^KO cells; gene Hist1h2bf, Dnmt3a^KO cells): 0.6891 | logFC (Dnmt3a^KO cells; gene Hist1h2bj, Dnmt3a^KO cells): 0.665 | logFC (Dnmt3a^KO cells; gene Hist1h4d, Dnmt3a^KO cells): 0.592 | logFC (Dnmt3a^KO cells; gene Hyal1, Dnmt3a^KO cells): 0.599 | logFC (Dnmt3a^KO cells; gene Igf2bp2, Dnmt3a^KO cells): 0.6643 | logFC (Dnmt3a^KO cells; gene Il12rb1, Dnmt3a^KO cells): 0.6261 | logFC (Dnmt3a^KO cells; gene Iqcg, Dnmt3a^KO cells): 0.6826 | logFC (Dnmt3a^KO cells; gene Itgb7, Dnmt3a^KO cells): 0.6248 | logFC (Dnmt3a^KO cells; gene Lars2, Dnmt3a^KO cells): 0.6326 | logFC (Dnmt3a^KO cells; gene Lif, Dnmt3a^KO cells): 0.6432 | logFC (Dnmt3a^KO cells; gene Loxl3, Dnmt3a^KO cells): 0.5934 | logFC (Dnmt3a^KO cells; gene Lrrc51, Dnmt3a^KO cells): 0.669 | logFC (Dnmt3a^KO cells; gene Map3k15, Dnmt3a^KO cells): 0.7124 | logFC (Dnmt3a^KO cells; gene Matk, Dnmt3a^KO cells): 0.5934 | logFC (Dnmt3a^KO cells; gene Mir6236, Dnmt3a^KO cells): 0.6256 | logFC (Dnmt3a^KO cells; gene Mmp12, Dnmt3a^KO cells): 0.7097 | logFC (Dnmt3a^KO cells; gene Mrc1, Dnmt3a^KO cells): 0.7023 | logFC (Dnmt3a^KO cells; gene N4bp3, Dnmt3a^KO cells): 0.6853 | logFC (Dnmt3a^KO cells; gene Nqo1, Dnmt3a^KO cells): 0.7094 | logFC (Dnmt3a^KO cells; gene Orm1, Dnmt3a^KO cells): −0.598 | logFC (Dnmt3a^KO cells; gene P2rx3, Dnmt3a^KO cells): 0.7048 | logFC (Dnmt3a^KO cells; gene Pcbp3, Dnmt3a^KO cells): 0.6997 | logFC (Dnmt3a^KO cells; gene Pf4, Dnmt3a^KO cells): 0.7165 | logFC (Dnmt3a^KO cells; gene Phf1, Dnmt3a^KO cells): 0.595 | logFC (Dnmt3a^KO cells; gene Plekhn1, Dnmt3a^KO cells): 0.6207 | logFC (Dnmt3a^KO cells; gene Ppp1r3d, Dnmt3a^KO cells): −0.595 | logFC (Dnmt3a^KO cells; gene Procr, Dnmt3a^KO cells): −0.595 | logFC (Dnmt3a^KO cells; gene Ptgs1, Dnmt3a^KO cells): 0.6215 | logFC (Dnmt3a^KO cells; gene Ptprn, Dnmt3a^KO cells): 0.5867 | logFC (Dnmt3a^KO cells; gene Pvrl1, Dnmt3a^KO cells): 0.663 | logFC (Dnmt3a^KO cells; gene Rap1gap, Dnmt3a^KO cells): 0.6406 | logFC (Dnmt3a^KO cells; gene Retnlg, Dnmt3a^KO cells): 0.6829 | logFC (Dnmt3a^KO cells; gene Rn45s, Dnmt3a^KO cells): 0.6912 | logFC (Dnmt3a^KO cells; gene Rptoros, Dnmt3a^KO cells): 0.6692 | logFC (Dnmt3a^KO cells; gene Scn3a, Dnmt3a^KO cells): 1.51 | logFC (Dnmt3a^KO cells; gene Serpinb2, Dnmt3a^KO cells): 0.6945 | logFC (Dnmt3a^KO cells; gene Slc36a2, Dnmt3a^KO cells): 0.7191 | logFC (Dnmt3a^KO cells; gene Spag1, Dnmt3a^KO cells): −0.587 | logFC (Dnmt3a^KO cells; gene Spry1, Dnmt3a^KO cells): −0.595 | logFC (Dnmt3a^KO cells; gene Srp54b, Dnmt3a^KO cells): 1.636 | logFC (Dnmt3a^KO cells; gene Stfa2l1, Dnmt3a^KO cells): −0.599 | logFC (Dnmt3a^KO cells; gene Tdrkh, Dnmt3a^KO cells): 0.5973 | logFC (Dnmt3a^KO cells; gene Tesc, Dnmt3a^KO cells): 0.607 | logFC (Dnmt3a^KO cells; gene Tjp3, Dnmt3a^KO cells): 0.5969 | logFC (Dnmt3a^KO cells; gene Tlr5, Dnmt3a^KO cells): 0.5879 | logFC (Dnmt3a^KO cells; gene Tpmt, Dnmt3a^KO cells): −0.598 | logFC (Dnmt3a^KO cells; gene Trem2, Dnmt3a^KO cells): 0.6257 | logFC (Dnmt3a^KO cells; gene Trib3, Dnmt3a^KO cells): 0.677 | logFC (Dnmt3a^KO cells; gene Zfp184, Dnmt3a^KO cells): −0.594 | logFC (Dnmt3a^KO cells; gene Zfp784, Dnmt3a^KO cells): 0.6147 | NF-κB activation upon ADP-heptose stimulation [1]: unable to activate NF-κB | MAPK signaling [2]: did not result in MAPK signaling
